Assay results reported in ChEMBL document CHEMBL1770141, “Quinolino-benzo-[5, 6]-dihydroisoquindolium compounds derived from berberine: a new class of highly selective ligands for G-quadruplex DNA in c-myc oncogene” (Eur J Med Chem, 2011).
Active and inactive are the calls of the source. The rule behind the calls is not given here.

Key:
Nucleic Acid [1] = experiment: Thermal stability of c-MYC FPu18T G-quadruplex DNA assessed as stabilization temperature at 2 uM by FRET assay; assay type: nucleic-acid assay
Nucleic Acid [2] = experiment: Thermal stability of F10T duplex DNA assessed as stabilization temperature at 2 uM by FRET assay; assay type: nucleic-acid assay
Nucleic Acid [3] = experiment: Inhibition of c-myc G-quadruplex formation in oligonucleotide Pu27 after 3 mins by PCR stop assay; assay type: nucleic-acid assay
HL-60 [4] = experiment: Cytotoxicity against human HL60 cells after 48 hrs by MTT assay; assay type: functional, cell-based; details: HL-60, 48 h
ECV-304 [5] = experiment: Cytotoxicity against human ECV304 cells after 48 hrs by MTT assay; assay type: functional, cell-based; details: ECV-304, 48 h
[6] = Cytotoxicity against human GLC82 cells after 48 hrs by MTT assay; assay type: functional, cell-based; details: GLC82, 48 h
NCI-H460 = experiment: Cytotoxicity against human NCI-H460 cells after 48 hrs by MTT assay; assay type: functional, cell-based; details: NCI-H460, 48 h
Nucleic Acid [7] = experiment: Thermal stability of c-MYC FPu18T G-quadruplex DNA assessed as stabilization temperature at 2 uM by FRET assay in presence of 10 uM duplex DNA competitor; assay type: nucleic-acid assay
HL-60 [8] = experiment: Induction of growth phase arrest in human HL60 cells expressing c-myc gene at 0.5 uM after 16 days; assay type: functional, cell-based
ECV-304 [9] = experiment: Induction of growth phase arrest in human ECV304 cells at 0.5 uM after 16 days; assay type: functional, cell-based
HL-60 [10] = experiment: Inhibition of c-myc gene transcription in human HL60 cells assessed as c-myc mRNA level normalized to GAPDH mRNA level by RT-PCR; assay type: functional, cell-based
ECV-304 [11] = experiment: Inhibition of c-myc gene transcription in human ECV304 cells assessed as c-myc mRNA level normalized to GAPDH mRNA level by RT-PCR; assay type: functional, cell-based
Nucleic Acid [12] = experiment: Binding affinity to oligonucleotide Pu18 DNA assessed as induction of Pu18G-quadruplex DNA at 262 nm bandwidth by circula dichroism spectroscopy; assay type: nucleic-acid assay
Nucleic Acid [13] = experiment: Binding affinity to oligonucleotide Pu18 DNA assessed as induction of Pu18G-quadruplex DNA positive shift to at 262 nm bandwidth by circula dichroism spectroscopy; assay type: nucleic-acid assay
Nucleic Acid [14] = experiment: Binding affinity to oligonucleotide Pu18 DNA assessed as induction of Pu18G-quadruplex DNA negative peak at 240 nm bandwidth by circula dichroism spectroscopy; assay type: nucleic-acid assay

| ΔTm (Nucleic Acid [1]) [°C] | ΔTm (Nucleic Acid [2]) [°C] | IC50 (Nucleic Acid [3]) [µM] | ΔTm (Nucleic Acid [7]) [°C] | Activity (Nucleic Acid [12]) | Activity (Nucleic Acid [13]) | Activity (Nucleic Acid [14]) | SMILES | IC50 (HL-60 [4]) [µM] | IC50 (ECV-304 [5]) [µM] | IC50 [6] [µM] | IC50 (NCI-H460) [µM] | Activity (HL-60 [8]) | Activity (ECV-304 [9]) | inhibition (HL-60 [10]) | inhibition (ECV-304 [11]) |
| --- | --- | --- | --- | --- | --- | --- | --- | --- | --- | --- | --- | --- | --- | --- | --- |
| 1 | 2 |  |  |  |  |  | COc1ccc2cc3[n+](cc2c1OC)CCc1cc2c(cc1-3)OCO2 |  |  |  |  |  |  |  |  |
| 20 | 0 | 3.4 | 19.5 |  |  |  | COc1ccc2cc3[n+](c4c2c1N(CCN(C)C)C=C4)CCc1cc2c(cc1-3)OCO2 | 12 | > 100 | 31 | 60 |  |  |  |  |
| 19 | 0 | 3.9 |  |  |  |  | COc1ccc2cc3[n+](cc2c1NCCN(C)C)CCc1cc2c(cc1-3)OCO2 | 38 | > 100 | 36 | 56 |  |  |  |  |
| 29 | 2 | 2 |  |  |  |  | COc1ccc2cc3[n+](cc2c1NCCCCCCN)CCc1cc2c(cc1-3)OCO2 | 5.5 | > 100 | 4 | 9 | Active | Active | Active | Active |
| 29 | 0.5 | 1.9 | 27.5 | Active | Active | Active | COc1ccc2cc3[n+](c4c2c1N(CCCCCCN)C=C4)CCc1cc2c(cc1-3)OCO2 | 2 | > 100 | 10 | 13 | Active | inactive | Active | inactive |
| 20 | 1 | 3.3 |  |  |  |  | COc1ccc2cc3[n+](cc2c1NCCCN(C)C)CCc1cc2c(cc1-3)OCO2 | 27.5 | > 100 | 29 | 64 |  |  |  |  |
| 25 | 0 | 3 | 24 |  |  |  | COc1ccc2cc3[n+](c4c2c1N(CCCN(C)C)C=C4)CCc1cc2c(cc1-3)OCO2 | 8 | > 100 | 5 | 9 |  |  |  |  |
| 17 | 0 | 4.8 |  |  |  |  | COc1ccc2cc3[n+](cc2c1NCCCN1CCOCC1)CCc1cc2c(cc1-3)OCO2 | 20.6 | > 100 | 85 | > 100 |  |  |  |  |
| 23 | 0 | 4.3 | 23 |  |  |  | COc1ccc2cc3[n+](c4c2c1N(CCCN1CCOCC1)C=C4)CCc1cc2c(cc1-3)OCO2 | 12.6 | > 100 | 30 | 36 |  |  |  |  |
